Experimental data taken from patent US20260013504A1, “HERBICIDAL MIXTURE, HERBICIDAL COMPOSITION, METHOD, USE, AND KITS FOR CONTROLLING UNDESIRABLE VEGETATION” (ADAMA AGAN LTD., priority 2022, published 2026).

Legend:
Format in all cases: in vivo
Aegilops tauschii = assay: Pot experiment, soil treatment, control of Aegilops tauschii (fresh weight, Colby); conditions: mixtures: both AIs at these rates, after 35 days
Lolium multiflorum Lamk = assay: Pot experiment, soil treatment, control of Lolium multiflorum Lamk (fresh weight, Colby); conditions: mixtures: both AIs at these rates, after 35 days
Solanum nigrum = assay: Pot experiment (glass greenhouse), soil treatment, control of Solanum nigrum (fresh weight, Colby)
Bromus japonicus = assay: Pot experiment, soil treatment, control of Bromus japonicus (fresh weight, Colby); conditions: mixtures: both AIs at these rates, after 35 days
Lithospermum arvense = assay: Pot experiment, soil treatment, control of Lithospermum arvense (fresh weight, Colby)
Galium aparine = assay: Pot experiment, soil treatment, control of Galium aparine (fresh weight, Colby)
[1] = g ai/ha: pyroxasulfone 11.25, fluorochloridone 31.25, aclonifen 150, diflufenican 14.0625, terbutryn 140.625
[2] = g ai/ha: pyroxasulfone 22.5, fluorochloridone 62.5, aclonifen 300, diflufenican 28.125, terbutryn 281.25
[3] = g ai/ha: pyroxasulfone 45, fluorochloridone 125, aclonifen 600, diflufenican 56.25, terbutryn 562.5
[4] = g ai/ha: pyroxasulfone 90, fluorochloridone 250, aclonifen 1200, diflufenican 112.5, terbutryn 1125
[5] = g ai/ha: pyroxasulfone 180, fluorochloridone 500, aclonifen 2400, diflufenican 225, terbutryn 2250
[6] = g ai/ha: pyroxasulfone 360, fluorochloridone 1000, aclonifen 4800, diflufenican 450, terbutryn 4500

## CCNc1nc(NC(C)(C)C)nc(SC)n1 [terbutryn, N-(1,1-dimethylethyl)-N′-ethyl-6-(methylthio)-1,3,5-triazine-2,4-diamine]
Aegilops tauschii; [1]
  Measured fresh weight inhibition rate (%): 8.5%
  Measured fresh weight survival rate (%) - E: 91.5%
Aegilops tauschii; [2]
  Measured fresh weight inhibition rate (%): 12.8%
  Measured fresh weight survival rate (%) - E: 87.2%
Aegilops tauschii; [3]
  Measured fresh weight inhibition rate (%): 46.3%
  Measured fresh weight survival rate (%) - E: 53.7%
Aegilops tauschii; [4]
  Measured fresh weight inhibition rate (%): 97.6%
  Measured fresh weight survival rate (%) - E: 2.4%
Aegilops tauschii; [5]
  Measured fresh weight inhibition rate (%): 96.3%
  Measured fresh weight survival rate (%) - E: 3.7%
Aegilops tauschii; [6]
  Measured fresh weight inhibition rate (%): 100.0%
  Measured fresh weight survival rate (%) - E: 0.0%
Lolium multiflorum Lamk; [1]
  Measured fresh weight inhibition rate (%): 94.3%
  Measured fresh weight survival rate (%) - E: 5.7%
Lolium multiflorum Lamk; [2]
  Measured fresh weight inhibition rate (%): 94.8%
  Measured fresh weight survival rate (%) - E: 5.2%
Lolium multiflorum Lamk; [3]
  Measured fresh weight inhibition rate (%): 100.0%
  Measured fresh weight survival rate (%) - E: 0.0%
Lolium multiflorum Lamk; [4]
  Measured fresh weight inhibition rate (%): 100.0%
  Measured fresh weight survival rate (%) - E: 0.0%
Lolium multiflorum Lamk; [5]
  Measured fresh weight inhibition rate (%): 100.0%
  Measured fresh weight survival rate (%) - E: 0.0%
Lolium multiflorum Lamk; [6]
  Measured fresh weight inhibition rate (%): 100.0%
  Measured fresh weight survival rate (%) - E: 0.0%
Solanum nigrum; 140.625 g ai/ha
  Measured fresh weight survival rate (%) - E: 57.6%
Solanum nigrum; 281.25 g ai/ha
  Measured fresh weight survival rate (%) - E: 36.1%
Solanum nigrum; 562.5 g ai/ha
  Measured fresh weight survival rate (%) - E: 0.4%
Solanum nigrum; 1125 g ai/ha
  Measured fresh weight survival rate (%) - E: 0.0%
Solanum nigrum; 2250 g ai/ha
  Measured fresh weight survival rate (%) - E: 0.0%
Solanum nigrum; Solanum nigrum, soil, 140.625 g ai/ha, read-out: Measured fresh weight inhibition rate (%)
  inhibition at 140.625 g/ha: 42.4%
Solanum nigrum; Solanum nigrum, soil, 281.25 g ai/ha, read-out: Measured fresh weight inhibition rate (%)
  inhibition at 281.25 g/ha: 63.9%
Solanum nigrum; Solanum nigrum, soil, 562.5 g ai/ha, read-out: Measured fresh weight inhibition rate (%)
  inhibition at 562.5 g/ha: 99.6%
Solanum nigrum; Solanum nigrum, soil, 1125 g ai/ha, read-out: Measured fresh weight inhibition rate (%)
  inhibition at 1125 g/ha: 100%
Solanum nigrum; Solanum nigrum, soil, 2250 g ai/ha, read-out: Measured fresh weight inhibition rate (%)
  inhibition at 2250 g/ha: 100%
Bromus japonicus; [1]
  Measured fresh weight inhibition rate (%): 100.0%
  Measured fresh weight survival rate (%) - E: 0.0%
Bromus japonicus; [2]
  Measured fresh weight inhibition rate (%): 100.0%
  Measured fresh weight survival rate (%) - E: 0.0%
Bromus japonicus; [3]
  Measured fresh weight inhibition rate (%): 100.0%
  Measured fresh weight survival rate (%) - E: 0.0%
Bromus japonicus; [4]
  Measured fresh weight inhibition rate (%): 100.0%
  Measured fresh weight survival rate (%) - E: 0.0%
Bromus japonicus; [5]
  Measured fresh weight inhibition rate (%): 100.0%
  Measured fresh weight survival rate (%) - E: 0.0%
Lithospermum arvense; 140.625 g ai/ha
  Measured fresh weight survival rate (%) - E: 1.4%
Lithospermum arvense; 281.25 g ai/ha
  Measured fresh weight survival rate (%) - E: 1.4%
Lithospermum arvense; 562.5 g ai/ha
  Measured fresh weight survival rate (%) - E: 0.0%
Lithospermum arvense; 1125 g ai/ha
  Measured fresh weight survival rate (%) - E: 0.0%
Lithospermum arvense; 2250 g ai/ha
  Measured fresh weight survival rate (%) - E: 0.0%
Lithospermum arvense; Buglossoides arvensis, soil, 140.625 g ai/ha, read-out: Measured fresh weight inhibition rate (%)
  inhibition at 140.625 g/ha: 98.6%
Lithospermum arvense; Buglossoides arvensis, soil, 281.25 g ai/ha, read-out: Measured fresh weight inhibition rate (%)
  inhibition at 281.25 g/ha: 98.6%
Lithospermum arvense; Buglossoides arvensis, soil, 562.5 g ai/ha, read-out: Measured fresh weight inhibition rate (%)
  inhibition at 562.5 g/ha: 100%
Lithospermum arvense; Buglossoides arvensis, soil, 1125 g ai/ha, read-out: Measured fresh weight inhibition rate (%)
  inhibition at 1125 g/ha: 100%
Lithospermum arvense; Buglossoides arvensis, soil, 2250 g ai/ha, read-out: Measured fresh weight inhibition rate (%)
  inhibition at 2250 g/ha: 100%
Galium aparine; 140.625 g ai/ha
  Measured fresh weight survival rate (%) - E: 80.8%
Galium aparine; 281.25 g ai/ha
  Measured fresh weight survival rate (%) - E: 53.4%
Galium aparine; 562.5 g ai/ha
  Measured fresh weight survival rate (%) - E: 9.6%
Galium aparine; 1125 g ai/ha
  Measured fresh weight survival rate (%) - E: 8.2%
Galium aparine; 2250 g ai/ha
  Measured fresh weight survival rate (%) - E: 0.0%
Galium aparine; Galium aparine, soil, 140.625 g ai/ha, read-out: Measured fresh weight inhibition rate (%)
  inhibition at 140.625 g/ha: 19.2%
Galium aparine; Galium aparine, soil, 281.25 g ai/ha, read-out: Measured fresh weight inhibition rate (%)
  inhibition at 281.25 g/ha: 46.6%
Galium aparine; Galium aparine, soil, 562.5 g ai/ha, read-out: Measured fresh weight inhibition rate (%)
  inhibition at 562.5 g/ha: 90.4%
Galium aparine; Galium aparine, soil, 1125 g ai/ha, read-out: Measured fresh weight inhibition rate (%)
  inhibition at 1125 g/ha: 91.8%
Galium aparine; Galium aparine, soil, 2250 g ai/ha, read-out: Measured fresh weight inhibition rate (%)
  inhibition at 2250 g/ha: 100%

## Cn1nc(C(F)(F)F)c(CS(=O)(=O)C2=NOC(C)(C)C2)c1OC(F)F [pyroxasulfone, 3-[(5-difluoromethoxy-1-methyl-3-trifluoromethylpyrazol-4-yl)methylsulfonyl]-4,5-dihydro-5,5-di methyl-1,2-isoxazole]
Aegilops tauschii; [1]
  Measured fresh weight inhibition rate (%): 4.9%
  Measured fresh weight survival rate (%) - E: 95.1%
Aegilops tauschii; [2]
  Measured fresh weight inhibition rate (%): 11.6%
  Measured fresh weight survival rate (%) - E: 88.4%
Aegilops tauschii; [3]
  Measured fresh weight inhibition rate (%): 47.6%
  Measured fresh weight survival rate (%) - E: 52.4%
Aegilops tauschii; [4]
  Measured fresh weight inhibition rate (%): 50.0%
  Measured fresh weight survival rate (%) - E: 50.0%
Aegilops tauschii; [5]
  Measured fresh weight inhibition rate (%): 78.7%
  Measured fresh weight survival rate (%) - E: 21.3%
Aegilops tauschii; [6]
  Measured fresh weight inhibition rate (%): 97.6%
  Measured fresh weight survival rate (%) - E: 2.4%
Lolium multiflorum Lamk; [1]
  Measured fresh weight inhibition rate (%): 68.2%
  Measured fresh weight survival rate (%) - E: 31.8%
Lolium multiflorum Lamk; [2]
  Measured fresh weight inhibition rate (%): 94.8%
  Measured fresh weight survival rate (%) - E: 5.2%
Lolium multiflorum Lamk; [3]
  Measured fresh weight inhibition rate (%): 100.0%
  Measured fresh weight survival rate (%) - E: 0.0%
Lolium multiflorum Lamk; [4]
  Measured fresh weight inhibition rate (%): 100.0%
  Measured fresh weight survival rate (%) - E: 0.0%
Lolium multiflorum Lamk; [5]
  Measured fresh weight inhibition rate (%): 100.0%
  Measured fresh weight survival rate (%) - E: 0.0%
Lolium multiflorum Lamk; [6]
  Measured fresh weight inhibition rate (%): 100.0%
  Measured fresh weight survival rate (%) - E: 0.0%
Solanum nigrum; 11.25 g ai/ha
  Measured fresh weight survival rate (%) - E: 82.4%
Solanum nigrum; 22.5 g ai/ha
  Measured fresh weight survival rate (%) - E: 68.2%
Solanum nigrum; 45 g ai/ha
  Measured fresh weight survival rate (%) - E: 38.4%
Solanum nigrum; 90 g ai/ha
  Measured fresh weight survival rate (%) - E: 8.2%
Solanum nigrum; 180 g ai/ha
  Measured fresh weight survival rate (%) - E: 4.7%
Solanum nigrum; Solanum nigrum, soil, read-out: Measured fresh weight inhibition rate (%)
  inhibition at 22.5 g/ha: 31.8%
Solanum nigrum; Solanum nigrum, soil, 11.25 g ai/ha, read-out: Measured fresh weight inhibition rate (%)
  inhibition at 11.25 g/ha: 17.6%
Solanum nigrum; Solanum nigrum, soil, 45 g ai/ha, read-out: Measured fresh weight inhibition rate (%)
  inhibition at 45 g/ha: 61.6%
Solanum nigrum; Solanum nigrum, soil, 90 g ai/ha, read-out: Measured fresh weight inhibition rate (%)
  inhibition at 90 g/ha: 91.8%
Solanum nigrum; Solanum nigrum, soil, 180 g ai/ha, read-out: Measured fresh weight inhibition rate (%)
  inhibition at 180 g/ha: 95.3%
Bromus japonicus; [1]
  Measured fresh weight inhibition rate (%): 74.2%
  Measured fresh weight survival rate (%) - E: 25.8%
Bromus japonicus; [2]
  Measured fresh weight inhibition rate (%): 88.7%
  Measured fresh weight survival rate (%) - E: 11.3%
Bromus japonicus; [3]
  Measured fresh weight inhibition rate (%): 100.0%
  Measured fresh weight survival rate (%) - E: 0.0%
Bromus japonicus; [4]
  Measured fresh weight inhibition rate (%): 100.0%
  Measured fresh weight survival rate (%) - E: 0.0%
Bromus japonicus; [5]
  Measured fresh weight inhibition rate (%): 100.0%
  Measured fresh weight survival rate (%) - E: 0.0%
Lithospermum arvense; 11.25 g ai/ha
  Measured fresh weight survival rate (%) - E: 63.8%
Lithospermum arvense; 22.5 g ai/ha
  Measured fresh weight survival rate (%) - E: 55.1%
Lithospermum arvense; 45 g ai/ha
  Measured fresh weight survival rate (%) - E: 27.5%
Lithospermum arvense; 90 g ai/ha
  Measured fresh weight survival rate (%) - E: 21.7%
Lithospermum arvense; 180 g ai/ha
  Measured fresh weight survival rate (%) - E: 10.1%
Lithospermum arvense; Buglossoides arvensis, soil, 11.25 g ai/ha, read-out: Measured fresh weight inhibition rate (%)
  inhibition at 11.25 g/ha: 36.2%
Lithospermum arvense; Buglossoides arvensis, soil, 22.5 g ai/ha, read-out: Measured fresh weight inhibition rate (%)
  inhibition at 22.5 g/ha: 44.9%
Lithospermum arvense; Buglossoides arvensis, soil, 45 g ai/ha, read-out: Measured fresh weight inhibition rate (%)
  inhibition at 45 g/ha: 72.5%
Lithospermum arvense; Buglossoides arvensis, soil, 90 g ai/ha, read-out: Measured fresh weight inhibition rate (%)
  inhibition at 90 g/ha: 78.3%
Lithospermum arvense; Buglossoides arvensis, soil, 180 g ai/ha, read-out: Measured fresh weight inhibition rate (%)
  inhibition at 180 g/ha: 89.9%
Galium aparine; 11.25 g ai/ha
  Measured fresh weight survival rate (%) - E: 67.1%
Galium aparine; 22.5 g ai/ha
  Measured fresh weight survival rate (%) - E: 21.9%
Galium aparine; 45 g ai/ha
  Measured fresh weight survival rate (%) - E: 4.1%
Galium aparine; 90 g ai/ha
  Measured fresh weight survival rate (%) - E: 4.1%
Galium aparine; 180 g ai/ha
  Measured fresh weight survival rate (%) - E: 0.0%
Galium aparine; Galium aparine, soil, 11.25 g ai/ha, read-out: Measured fresh weight inhibition rate (%)
  inhibition at 11.25 g/ha: 32.9%
Galium aparine; Galium aparine, soil, 22.5 g ai/ha, read-out: Measured fresh weight inhibition rate (%)
  inhibition at 22.5 g/ha: 78.1%
Galium aparine; Galium aparine, soil, 45 g ai/ha, read-out: Measured fresh weight inhibition rate (%)
  inhibition at 45 g/ha: 95.9%
Galium aparine; Galium aparine, soil, 90 g ai/ha, read-out: Measured fresh weight inhibition rate (%)
  inhibition at 90 g/ha: 95.9%
Galium aparine; Galium aparine, soil, 180 g ai/ha, read-out: Measured fresh weight inhibition rate (%)
  inhibition at 180 g/ha: 100%
